Measured values: publication PMC9516332 (Frontiers in Oncology, 2022)
Where two headings read alike, the source gives them in different places.

How the values were obtained:
134 cancer cell lines = test: Cell viability assay (ATPlite, 72 hours), IC50 on cancer cell line panel
AP-1060 (ETV6-NTRK3) = test: Cell viability assay; settings: read-out: IC50 in cell proliferation assay

In the case of `FC(F)(F)c1ccc(CNc2ccc(Cc3c[nH]c4ncc(Cl)cc34)cn2)cn1` [pexidartinib], the IC50 (134 cancer cell lines; Homo sapiens, MV4-11, read-out: IC50 in cell proliferation assay, MV4-11 cell line (FLT3 ITD)) is reported as 0.254 µM, the IC50 (134 cancer cell lines; Homo sapiens, MeWo, read-out: IC50 in cell proliferation assay, MeWo cell line) is reported as greater than 31.6 µM and the IC50 (134 cancer cell lines; Homo sapiens, NCCIT, read-out: IC50 in cell proliferation assay, NCC-IT cell line) is reported as greater than 31.6 µM. For the same compound, the IC50 (134 cancer cell lines; Homo sapiens, NCI-H82, read-out: IC50 in cell proliferation assay, cell line NCI-H82) was greater than 31.6 µM, the IC50 (134 cancer cell lines; Homo sapiens, NCI-H460, read-out: IC50 in cell proliferation assay, NCI-H460 cell line) was 3.33 µM and the IC50 (134 cancer cell lines; Homo sapiens, NCI-H661, read-out: IC50 in cell proliferation assay, NCI-H661 cell line) was greater than 31.6 µM. It also gave an IC50 (134 cancer cell lines; Homo sapiens, NCI-H716, read-out: IC50 in cell proliferation assay, cell line NCI-H716 (FGFR2-COL14A1)) of 17 µM, an IC50 (134 cancer cell lines; Homo sapiens, NCI-H1650, read-out: IC50 in cell proliferation assay, NCI-H1650 cell line (EGFR exon19del)) greater than 31.6 µM and an IC50 (134 cancer cell lines; Homo sapiens, NCI-H1975, read-out: IC50 in cell proliferation assay, NCI-H1975 cell line (EGFR p.L858R + p.T790M)) greater than 31.6 µM. For the same compound, the IC50 (134 cancer cell lines; Homo sapiens, NCI-H2228, read-out: IC50 in cell proliferation assay, NCI-H2228 cell line (EML4-ALK)) was greater than 31.6 µM, the IC50 (134 cancer cell lines; Homo sapiens, OVCAR-3, read-out: IC50 in cell proliferation assay, cell line OVCAR-3) was greater than 31.6 µM and the IC50 (134 cancer cell lines; Homo sapiens, PFSK-1, read-out: IC50 in cell proliferation assay, cell line PFSK-1) was greater than 31.6 µM. It also gave an IC50 (134 cancer cell lines; Homo sapiens, RL95-2, read-out: IC50 in cell proliferation assay, cell line RL95-2 (EGFR p.A289V)) greater than 31.6 µM, an IC50 (134 cancer cell lines; Homo sapiens, RPMI-7951, read-out: IC50 in cell proliferation assay, cell line RPMI-7951 (BRAF p.V600E)) of 26.5 µM and an IC50 (134 cancer cell lines; Homo sapiens, RS4-11, read-out: IC50 in cell proliferation assay, cell line RS4;11) greater than 31.6 µM. For the same compound, the IC50 (134 cancer cell lines; Homo sapiens, Rec1, read-out: IC50 in cell proliferation assay, cell line REC-1) was 16 µM, the IC50 (134 cancer cell lines; Homo sapiens, SHP77, read-out: IC50 in cell proliferation assay, cell line SHP-77) was greater than 31.6 µM and the IC50 (134 cancer cell lines; Homo sapiens, SK-BR-3, read-out: IC50 in cell proliferation assay, cell line SK-BR-3 (ERBB2 amplification)) was greater than 31.6 µM. It also gave an IC50 (134 cancer cell lines; Homo sapiens, SK-N-AS, read-out: IC50 in cell proliferation assay, cell line SK-N-AS) greater than 31.6 µM, an IC50 (134 cancer cell lines; Homo sapiens, SK-N-FI, read-out: IC50 in cell proliferation assay, cell line SK-N-FI) greater than 31.6 µM and an IC50 (134 cancer cell lines; Homo sapiens, SK-N-MC, read-out: IC50 in cell proliferation assay, cell line SK-N-MC) greater than 31.6 µM. For the same compound, the IC50 (134 cancer cell lines; Homo sapiens, SK-N-SH, read-out: IC50 in cell proliferation assay, cell line SK-N-SH (ALK p.F1174L)) was greater than 31.6 µM, the IC50 (134 cancer cell lines; Homo sapiens, SNU-5, read-out: IC50 in cell proliferation assay, cell line SNU-5 (MET amplification)) was greater than 31.6 µM and the IC50 (134 cancer cell lines; Homo sapiens, SNU-16, read-out: IC50 in cell proliferation assay, cell line SNU-16 (FGFR2 amplification)) was 8.76 µM. For the same compound, the IC50 (134 cancer cell lines; Homo sapiens, SNU-C2B, read-out: IC50 in cell proliferation assay, cell line SNU-C2B (EGFR p.R165Q)) was greater than 31.6 µM, the IC50 (134 cancer cell lines; Homo sapiens, SU-DHL-1, read-out: IC50 in cell proliferation assay, cell line SU-DHL-1 (NPM1-ALK)) was greater than 31.6 µM and the IC50 (134 cancer cell lines; Homo sapiens, SU-DHL-6, read-out: IC50 in cell proliferation assay, cell line SU-DHL-6) was greater than 31.6 µM. The IC50 (134 cancer cell lines; Homo sapiens, SUP-T1, read-out: IC50 in cell proliferation assay, cell line SUP-T1) was greater than 31.6 µM, the IC50 (134 cancer cell lines; Homo sapiens, SW48, read-out: IC50 in cell proliferation assay, cell line SW48 (EGFR p.G719S)) was greater than 31.6 µM and the IC50 (134 cancer cell lines; Homo sapiens, SW480, read-out: IC50 in cell proliferation assay, cell line SW480) was greater than 31.6 µM. For the same compound, the IC50 (134 cancer cell lines; Homo sapiens, SW626, read-out: IC50 in cell proliferation assay, cell line SW626) was greater than 31.6 µM, the IC50 (134 cancer cell lines; Homo sapiens, SW780, read-out: IC50 in cell proliferation assay, cell line SW780 (FGFR3-BAIAP2L1)) was 5.07 µM and the IC50 (134 cancer cell lines; Homo sapiens, SW837, read-out: IC50 in cell proliferation assay, cell line SW837) was greater than 31.6 µM. For the same compound, the IC50 (134 cancer cell lines; Homo sapiens, SW872, read-out: IC50 in cell proliferation assay, cell line SW872 (BRAF p.V600E)) was greater than 31.6 µM, the IC50 (134 cancer cell lines; Homo sapiens, SW900, read-out: IC50 in cell proliferation assay, cell line SW900) was greater than 31.6 µM and the IC50 (134 cancer cell lines; Homo sapiens, SW948, read-out: IC50 in cell proliferation assay, cell line SW948) was 19.9 µM. The IC50 (134 cancer cell lines; Homo sapiens, SW982, read-out: IC50 in cell proliferation assay, cell line SW982 (BRAF p.V600E)) was greater than 31.6 µM, the IC50 (134 cancer cell lines; Homo sapiens, SW-620, read-out: IC50 in cell proliferation assay, cell line SW620) was greater than 31.6 µM and the IC50 (134 cancer cell lines; Homo sapiens, T98G, read-out: IC50 in cell proliferation assay, cell line T98G) was greater than 31.6 µM. It also gave an IC50 (134 cancer cell lines; Homo sapiens, TCC-SUP, read-out: IC50 in cell proliferation assay, cell line TCCSUP) greater than 31.6 µM, an IC50 (134 cancer cell lines; Homo sapiens, THP-1, read-out: IC50 in cell proliferation assay, cell line THP-1) greater than 31.6 µM and an IC50 (134 cancer cell lines; Homo sapiens, U2OS, read-out: IC50 in cell proliferation assay, cell line U2OS) greater than 31.6 µM. For the same compound, the IC50 (134 cancer cell lines; Homo sapiens, U-87 MG, read-out: IC50 in cell proliferation assay, cell line U-87MG ATCC) was greater than 31.6 µM, the IC50 (134 cancer cell lines; Homo sapiens, U-118-MG, read-out: IC50 in cell proliferation assay, cell line U-118MG) was greater than 31.6 µM and the IC50 (134 cancer cell lines; Homo sapiens, UMUC3, read-out: IC50 in cell proliferation assay, cell line UM-UC-3) was greater than 31.6 µM. It also gave an IC50 (134 cancer cell lines; Hs766T, read-out: IC50 in cell proliferation assay, Hs 766T cell line) greater than 31.6 µM, an IC50 (134 cancer cell lines; L-82, read-out: IC50 in cell proliferation assay, L-82 cell line (NPM1-ALK)) greater than 31.6 µM and an IC50 (134 cancer cell lines; Rh30, read-out: IC50 in cell proliferation assay, cell line Rh30) greater than 31.6 µM. For the same compound, the IC50 (134 cancer cell lines; read-out: IC50 in cell proliferation assay, 11-18 cell line (EGFR p.L858R)) was greater than 31.6 µM, the IC50 (134 cancer cell lines; read-out: IC50 in cell proliferation assay, Hs 852.T cell line) was greater than 31.6 µM and the IC50 (134 cancer cell lines; read-out: IC50 in cell proliferation assay, JAR cell line) was greater than 31.6 µM. For the same compound, the IC50 (134 cancer cell lines; read-out: IC50 in cell proliferation assay, cell line 5637) was 18.3 µM, the IC50 (134 cancer cell lines; read-out: IC50 in cell proliferation assay, cell line A-388) was greater than 31.6 µM and the IC50 (134 cancer cell lines; read-out: IC50 in cell proliferation assay, cell line DB) was greater than 31.6 µM. The IC50 (134 cancer cell lines; read-out: IC50 in cell proliferation assay, cell line DEL (NPM1-ALK)) was greater than 31.6 µM, the IC50 (134 cancer cell lines; read-out: IC50 in cell proliferation assay, cell line ES-2 (BRAF p.V600E)) was greater than 31.6 µM and the IC50 (134 cancer cell lines; read-out: IC50 in cell proliferation assay, cell line PA-1) was 17.3 µM. The IC50 (134 cancer cell lines; read-out: IC50 in cell proliferation assay, cell line PC-3) was greater than 31.6 µM, the IC50 (134 cancer cell lines; read-out: IC50 in cell proliferation assay, cell line RD) was greater than 31.6 µM and the IC50 (134 cancer cell lines; read-out: IC50 in cell proliferation assay, cell line RKO (BRAF p.V600E)) was greater than 31.6 µM. For the same compound, the IC50 (134 cancer cell lines; read-out: IC50 in cell proliferation assay, cell line RL) was greater than 31.6 µM, the IC50 (134 cancer cell lines; read-out: IC50 in cell proliferation assay, cell line RT-4 (FGFR3-TACC3)) was greater than 31.6 µM and the IC50 (134 cancer cell lines; read-out: IC50 in cell proliferation assay, cell line SR (NPM1-ALK)) was 27.3 µM. The IC50 (134 cancer cell lines; read-out: IC50 in cell proliferation assay, cell line T24) was greater than 31.6 µM, the IC50 (134 cancer cell lines; read-out: IC50 in cell proliferation assay, cell line TT (RET p.C634W)) was greater than 31.6 µM and the IC50 (134 cancer cell lines; read-out: IC50 in cell proliferation assay, cell line VA-ES-BJ) was greater than 31.6 µM. For the same compound, the IC50 (AP-1060 (ETV6-NTRK3)) was greater than 31.6 µM.
